Test results published in patent publication US5601992A, “Peptide library formats and methods relating thereto” (Bunsen Rush Laboratories, Inc., priority 1994, dated 1997).
Where no end group is shown, it is not given here.

Assays:
melanophore cells = assay: Pigment dispersion assay with a-MSH- and control-peptide-coated beads on a dish plated with melanophore cells; format: cell-based; settings: TFA-treated beads on agarose gel with 20 nM melantonin; ten and 30 minutes after placement
Procedure: a-MSH and its congener peptide (cp) were screened using a culture dish plated with melanophore cells. Melanophores were maintained in cell culture as previously described (A. Daniolos, et al., Pigment Cell Res. 3, 38 (1990); M. N. Potenza, M. R. Lerner, Pigment Cell Res. 4, 186 (1991)). Four million cells were seeded into a 100 mm tissue culture plate (actual internal diameter was 85 mm) in 20 mL of frog fibroblast conditioned media and incubated at 27° C. for 72 h. For an experiment, the media was removed from the dish and replaced with 9 mL of 0.9% Sea Plaque Agarose (FMC Corporation) prepared in fibroblast conditioned media containing 20 nM melantonin. The plate was then placed in the dark for thirty min, after which beads coated with a-MSH or the cp, were sprinkled on the agarose bed and the pigment dispersion response was monitored by photography.

murine bombesin receptor = biological target: T1, murine bombesin receptor (Mus musculus, UniProt P21729); assay: Screening of bead-released peptides (MPL) on agarose-overlaid melanophores expressing the bombesin receptor; pigment dispersion; format: cell-based; settings: TFA-gas-cleaved beads on agarose with 2 nM melantonin
T1 construct: expressed in transfected cells; host or cells: melanophores (frog; cultured as in Potenza & Lerner), transfected by electroporation with pJG3.6BR
Procedure: Melanophore cells (either transfected or non-transfected and as described in the above-identified patent application) were seeded (4×10^6)into 100 mm tissue culture plate (Falcon, N.J.). For transfected cells, the 100 mm tissue culture dishes were pre-coated with Cell-Tak (Collaborative Research, Inc., Massachusetts) at a concentration of […]. Media and conditions unless otherwise stated, were as described in the above-identified patent application. For wild type cells, no media changes are necessary and the cells can be used as soon as 24 hours after plating. For transfected cells, after the cells have attached to the surface (2-3 h), the media was removed and replaced with 20 ml of frog fibroblast conditioned media which is based on 70% L-15 media (Sigma) with 20% fetal bovine serum supplemented with L-Glutamine and Penicillin Streptomycin (Gibco). The cells were incubated at 27° C. for 12-72 h. Then 12-24 before the experiment, the media was removed and the cells were washed gently with 1×10 ml 70% EX-CELL 320 (JRH Biosciences, Kansas; 70% part A 29% water and 1% part B, hereinafter EX-CELL). […]
The bombesin MPL was screened for agonists using melanophore cells expressing the bombesin receptor. […] Pigment dispersion induced by peptide analogues were monitored by video image subtraction (McClintock, T., et al., Anal. Biochem. 209:298-305 (1993)). […]

T1 sequence (P21729 whole entry): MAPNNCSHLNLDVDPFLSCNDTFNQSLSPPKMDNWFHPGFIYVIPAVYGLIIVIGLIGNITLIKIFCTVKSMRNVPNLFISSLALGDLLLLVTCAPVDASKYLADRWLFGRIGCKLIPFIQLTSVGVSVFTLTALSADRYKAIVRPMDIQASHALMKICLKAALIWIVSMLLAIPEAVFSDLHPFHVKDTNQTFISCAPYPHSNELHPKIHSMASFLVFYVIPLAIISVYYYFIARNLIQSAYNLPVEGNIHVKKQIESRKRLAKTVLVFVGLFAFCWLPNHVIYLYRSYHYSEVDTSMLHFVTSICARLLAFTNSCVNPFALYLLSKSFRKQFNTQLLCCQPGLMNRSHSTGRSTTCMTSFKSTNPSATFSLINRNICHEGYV

Substance: Ser-Lys-Glu-Arg-His-Ser-Trp-Tyr-NH2 (SKERHSWY-NH2) [cp, negative control peptide]
- pigment dispersion response (melanophore cells): lack of a pigment dispersion response

Substance: litorin
- pigment dispersion response of recombinant melanophores to peptide released from bead (agonist activity) (murine bombesin receptor): biological activity of the free peptide released from (but still coated on) the bead was confirmed
